# Assay results published in ChEMBL document CHEMBL5360605, “Novel Lactams as CBL-B Inhibitors for Treating Cancer” (ACS Med Chem Lett, 2023).
# Molecular target: E3 ubiquitin-protein ligase CBL-B (Homo sapiens, UniProt Q13191)
# Assay: Inhibition of biotin-tagged Cbl-b (unknown origin) assessed as reduction in LCK ubiquitination using His-LCK as substrate preincubated for 60 mins followed by substrate addition in presence of ATP, MgCl2 and measured after 90 mins by HTRF assay
# Chain of E3 ubiquitin-protein ligase CBL-B (Q13191 whole entry): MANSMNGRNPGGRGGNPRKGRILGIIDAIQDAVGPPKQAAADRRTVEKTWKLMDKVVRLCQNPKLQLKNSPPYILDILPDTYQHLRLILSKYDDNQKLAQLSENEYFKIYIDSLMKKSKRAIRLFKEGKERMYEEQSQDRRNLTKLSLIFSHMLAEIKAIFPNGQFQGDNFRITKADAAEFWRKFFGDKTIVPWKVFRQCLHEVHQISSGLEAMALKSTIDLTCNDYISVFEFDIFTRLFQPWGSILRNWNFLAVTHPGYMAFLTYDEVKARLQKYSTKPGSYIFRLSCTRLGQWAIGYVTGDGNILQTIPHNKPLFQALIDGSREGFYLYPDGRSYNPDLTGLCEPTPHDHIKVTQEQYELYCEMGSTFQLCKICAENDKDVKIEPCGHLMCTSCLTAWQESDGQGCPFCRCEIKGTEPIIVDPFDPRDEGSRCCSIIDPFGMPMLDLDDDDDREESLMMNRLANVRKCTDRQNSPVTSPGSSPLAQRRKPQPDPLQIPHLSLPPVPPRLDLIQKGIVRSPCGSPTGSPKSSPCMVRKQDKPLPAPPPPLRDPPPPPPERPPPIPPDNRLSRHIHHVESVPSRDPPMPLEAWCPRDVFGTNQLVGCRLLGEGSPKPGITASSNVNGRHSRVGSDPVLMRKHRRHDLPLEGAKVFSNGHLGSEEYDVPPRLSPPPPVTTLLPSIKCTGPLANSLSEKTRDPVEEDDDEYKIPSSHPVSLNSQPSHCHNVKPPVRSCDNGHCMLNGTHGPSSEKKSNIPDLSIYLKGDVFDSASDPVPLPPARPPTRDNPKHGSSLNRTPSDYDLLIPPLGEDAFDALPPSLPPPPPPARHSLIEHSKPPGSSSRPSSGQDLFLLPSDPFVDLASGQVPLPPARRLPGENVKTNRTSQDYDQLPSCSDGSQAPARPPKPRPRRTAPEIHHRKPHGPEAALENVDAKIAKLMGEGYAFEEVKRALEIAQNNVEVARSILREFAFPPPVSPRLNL
row,Structure (SMILES),IC50
1,C[C@H](NC1(C)CCC1)c1cc2c(c(C(F)(F)F)c1)CN(c1cccc([C@@H](c3nncn3C)C3COC3)c1)C2=O,4 nM
2,Cn1cnnc1[C@]1(c2cccc(N3Cc4c(cc(CNC5(C)CCC5)cc4C(F)(F)F)C3=O)c2)C[C@H](Cl)C1,4 nM
3,CO[C@H]1C[C@](c2cccc(N3Cc4c(cc(CNC5CC6CC6C5)cc4C(F)(F)F)C3=O)c2)(c2nncn2C)C1 (stereo partly specified),4 nM
4,Cn1cnnc1C(c1cccc(N2Cc3c(cc(CNC4(C)CCC4)cc3C(F)(F)F)C2=O)c1)[C@H]1C[C@H](CC#N)C1 (stereo partly specified),3 nM

# Continued by falling IC50, values first:
row,IC50,Structure (SMILES)
1,4 nM,CCOc1cc([C@]2(c3nncn3C)C[C@@H](C)C2)cc(N2Cc3c(cc(CNC4(C)CCC4)cc3C(F)(F)F)C2=O)n1
2,4 nM,C[C@H](NC1(C)CCC1)c1cc(Cl)c2c(c1)C(=O)N(c1cccc([C@]3(c4nncn4C)C[C@H](F)C3)c1)C2
